Values after ≈ are worked out from the molar mass of the structure shown.

The subject of one assay is ΔbcnA pbcnA2 (Pa). Kind of assay: MIC by E test. The format is cell-based, Burkholderia cenocepacia. Conditions: 24 h.
In another assay the test system is ΔbcnA pbcnA. Kind of assay: MIC by E test. The format is cell-based, Burkholderia cenocepacia. Conditions: 24 h.
In a further assay the test system is ΔbcnA pbcnA1 (Pa). In words: MIC by E test. The format is cell-based, Burkholderia cenocepacia. To be noted: 24 h.
For the next assay, the system named is ΔbcnA pbcnA (MTb). It is filed as cell-based, Burkholderia cenocepacia.
The next assay deals with ΔbcnA pbcnA3 (Pa). In words: MIC by E test. It is filed as cell-based, Burkholderia cenocepacia. To be noted: 24 h.
The subject of a further assay is BcnB. In words: In vitro binding of Nile red to BcnB. Also noted: species or system Burkholderia cenocepacia. Conditions: 1.5 µM BcnB vs 1.5 µM BcnA. As for the experimental part:
In vitro binding assays were performed as previously described ([23]), with a few modifications. Purified BCNs were prepared in phosphate-buffered saline (PBS, pH 7.4). Phospholipids and Nile red were prepared in DMSO. […] All spectra were corrected for background fluorescence determined from probe-into-buffer titrations. Fluorescence was measured with a Cary Eclipse fluorescence spectrophotometer (Varian) set at an excitation wavelength (λex) specific for each probe, as follows: Nile red, 550 nm; BODIPY phospholipids, 500 nm for fatty acyl BODIPY-labeled phosphocholine and 505 nm for head group BODIPY-labeled phosphoethanolamine. The emission spectrum for each probe was collected across the following wavelengths (λem): Nile red, 590 to 750 nm; BODIPY phospholipids, 510 to 665 nm. The background-corrected binding fluorescence with each probe was fitted to a one-site binding model as previously described for human AGP ([23]). The equilibrium binding affinity constant for the probe-BCN complex (Kd), the probe concentration needed to achieve half-maximum binding at equilibrium, was determined by nonlinear least-squares regression analysis of the binding isotherms with GraphPad Prism v 5.0 software (GraphPad Software, Inc.).

The target of assay [1] is Burkholderia cenocepacia BcnB (BCAL3310) (Burkholderia cenocepacia). In words: SEC-MALS; proteins diluted to 1 mg/ml in 20 mM Tris (pH 7.5)-100 mM NaCl.
Assay [2] concerns the target Burkholderia cenocepacia BcnA (BCAL3311) (Burkholderia cenocepacia). In words: other; competition with Nile red, PBS.

With `CC(C)(O/N=C(\C(=O)N[C@@H]1C(=O)N2C(C(=O)[O-])=C(C[n+]3ccccc3)CS[C@H]12)c1csc(N)n1)C(=O)O` [Ceftazidime, ceftazidime], the “MIC by Etest, ΔbcnA pbcnA2 (Pa)” value against ΔbcnA pbcnA2 (Pa) amounted to 8 µg/mL (≈ 14.6 µM). In the assay with ΔbcnA pbcnA, the “MIC by Etest, ΔbcnA pbcnA” value stood at 8 µg/mL (≈ 14.6 µM). For the same compound, in the assay on ΔbcnA pbcnA1 (Pa), the “MIC by Etest, ΔbcnA pbcnA1 (Pa)” value amounted to 8 µg/mL (≈ 14.6 µM). Moreover, the “MIC by Etest, ΔbcnA pbcnA (MTb)” value in the assay with ΔbcnA pbcnA (MTb) turned out to be 8 µg/mL (≈ 14.6 µM). For the same compound, in the assay on ΔbcnA pbcnA3 (Pa), the “MIC by Etest, ΔbcnA pbcnA3 (Pa)” value was found to be 8 µg/mL (≈ 14.6 µM).
As for `O=C(O)c1cn(C2CC2)c2cc(N3CCNCC3)c(F)cc2c1=O` [Cipro, ciprofloxacin], in the assay on ΔbcnA pbcnA2 (Pa), the “MIC by Etest, ΔbcnA pbcnA2 (Pa)” value was 4 µg/mL (≈ 12.1 µM). The “MIC by Etest, ΔbcnA pbcnA” value in the assay with ΔbcnA pbcnA is 4 µg/mL (≈ 12.1 µM). Moreover, the “MIC by Etest, ΔbcnA pbcnA1 (Pa)” value with ΔbcnA pbcnA1 (Pa) turned out to be 4 µg/mL (≈ 12.1 µM). For the same compound, the “MIC by Etest, ΔbcnA pbcnA (MTb)” value in the assay with ΔbcnA pbcnA (MTb) is 4 µg/mL (≈ 12.1 µM). The “MIC by Etest, ΔbcnA pbcnA3 (Pa)” value in the assay with ΔbcnA pbcnA3 (Pa) was found to be 4 µg/mL (≈ 12.1 µM).
`CCN(CC)c1ccc2nc3c4ccccc4c(=O)cc-3oc2c1` [Nile red]: in the assay with BcnB, the “affinity of BcnB binding to Nile red, fold lower than that of BcnA” value was ~ 20 fold.
Turning to `CO[C@H]1/C=C/O[C@@]2(C)Oc3c(C)c(O)c4c(O)c(c(/C=N/N5CCN(C)CC5)c(O)c4c3C2=O)NC(=O)/C(C)=C\C=C\[C@H](C)[C@H](O)[C@@H](C)[C@@H](O)[C@@H](C)[C@H](OC(C)=O)[C@@H]1C` [Rifampicin, rifampin], the “MIC by Etest, ΔbcnA pbcnA2 (Pa)” value with ΔbcnA pbcnA2 (Pa) turned out to be 32 µg/mL (≈ 38.9 µM). Moreover, the “MIC by Etest, ΔbcnA pbcnA” value against ΔbcnA pbcnA was at least 64 µg/mL. The “MIC by Etest, ΔbcnA pbcnA1 (Pa)” value in the assay with ΔbcnA pbcnA1 (Pa) was at least 64 µg/mL. Moreover, the “MIC by Etest, ΔbcnA pbcnA (MTb)” value against ΔbcnA pbcnA (MTb) is at least 64 µg/mL. The “MIC by Etest, ΔbcnA pbcnA3 (Pa)” value with ΔbcnA pbcnA3 (Pa) was at least 64 µg/mL.
In assay [1], “Burkholderia cenocepacia BcnB (BCAL3310) (natural protein)” yielded a stoichiometry N of 2.
PmB nonapeptide displayed a Ki in assay [2] of 5080 µM.
For the compound polymyxin B, the Ki in assay [2] came out at 670 µM.

Values taken from article PMC5350466 (mBio, 2017).
